# From patent publication US20220315621A1, “COMPOSITIONS AND METHODS FOR TREATING CNS DISORDERS” (priority 2017, published 2022)
# Read-outs that look alike come from different tables or passages of the source.
# Target: TBPS binding
# Test: Steroid inhibition of TBPS binding
# [1] = Table II-2, read-out: TBPS IC50 (μm)
# [2] = Table III-1, read-out: TBPS IC50
# [3] = Table IV-2, read-out: TBPS IC50
compound,measurement,setting,value
"COC[C@]1(O)C[C@H]2CC[C@@H]3[C@H](CC[C@]4(C)[C@@H](C(C)=O)CC[C@@H]34)[C@H]2C1 [II-J9, 1-((1S,3aS,3bR,5aR,7S,8aS,8bR,10aS)-7-hydroxy-7-(methoxymethyl)-10a-methylhexadecahydrodicyclopenta[a,f]naphthalen-l-yl)ethan-1-one]",IC50,[1],100 to 1000 nM
"COC[C@]1(O)C[C@H]2CC[C@@H]3[C@H](CC[C@]4(C)[C@@H](C(=O)Cn5cc(C#N)cn5)CC[C@@H]34)[C@H]2C1 [II-J11, 1-(2-((1S,3aS,3bR,5aR,7S,8aS,8bR,10aS)-7-hydroxy-7-(methoxymethyl)-10a-methylhexadecahydrodicyclopenta[a,f]naphthalen-1-yl)-2-oxoethyl)-1H-pyrazole-4-carbonitrile]",IC50,[1],100 to 1000 nM
"CC(=O)[C@H]1CC[C@H]2[C@@H]3CCC[C@H]4C[C@](C)(O)CC[C@@H]4[C@H]3CC[C@]12C [III-A13, 1-((1S,3aS,3bR,6aS,8R,10aS,10bR,12aS)-8-hydroxy-8,12a-dimethyloctadecahydrobenzo[3,4]cyclohepta[1,2-e]inden-1-yl)ethan-1-one]",IC50,[2],1000 to 10000 nM
"C[C@@]1(O)CC[C@H]2[C@@H](CCC[C@@H]3[C@@H]2CC[C@]2(C)[C@@H](C(=O)Cn4cc(C#N)cn4)CC[C@@H]32)C1 [III-A15, 1-(2-((1S,3aS,3bR,6aS,8R,10aS,10bR,12aS)-8-hydroxy-8,12a-dimethyloctadecahydrobenzo[3,4]cyclohepta[1,2-e]inden-1-yl)-2-oxoethyl)-1H-pyrazole-4-carbonitrile]",IC50,[2],100 to 1000 nM
"C[C@@]1(O)CC[C@H]2[C@H](C[C@@H]3[C@@H]2CC[C@]2(C)[C@@H](C(=O)Cn4cc(C#N)cn4)CC[C@@H]32)C1 [IV-A16, 1-(2-((3S,3aS,5aR,5bS,8R,9aR,10aR,10bS)-8-hydroxy-3a,8-dimethylhexadecahydrocyclopenta[a]fluoren-3-yl)-2-oxoethyl)-1H-pyrazole-4-carbonitrile]",IC50,[3],10 to 100 nM
"CC(=O)[C@H]1CC[C@H]2[C@@H]3C[C@H]4C[C@](C)(O)CC[C@@H]4[C@H]3CC[C@]12C [IV-B7, 1-((3S,3aS,5aR,5bS,8R,9aS,10aR,10bS)-8-hydroxy-3a,8-dimethylhexadecahydrocyclopenta[a]fluoren-3-yl)ethan-1-one]",IC50,[3],10 to 100 nM
"C[C@@]1(O)CC[C@H]2[C@@H](C[C@@H]3[C@@H]2CC[C@]2(C)[C@@H](C(=O)Cn4cc(C#N)cn4)CC[C@@H]32)C1 [IV-B9, 1-(2-((3S,3aS,5aR,5bS,8R,9aS,10aR,10bS)-8-hydroxy-3a,8-dimethylhexadecahydrocyclopenta[a]fluoren-3-yl)-2-oxoethyl)-1H-pyrazole-4-carbonitrile]",IC50,[3],10 to 100 nM
"CC(=O)[C@H]1CC[C@H]2[C@@H]3CC[C@H]4C[C@](C)(O)CC[C@]4(C)[C@H]3CCC[C@]12C [V-A8, 1-((3aS,4S,6aS,6bR,8aS,10R,12aS,12bS)-10-hydroxy-3a,10,12a-trimethyloctadecahydronaphtho[2,1-e]azulen-4-yl)ethan-1-one]",IC50,"Table V-2, read-out: TBPS IC50",100 to 1000 nM
"C[C@@]1(O)CC[C@@]2(C)[C@@H](CC[C@@H]3[C@@H]2CCC[C@]2(C)[C@@H](C(=O)Cn4cc(C#N)cn4)CC[C@@H]32)C1 [V-A10, 1-(2-((3aS,4S,6aS,6bR,8aS,10R,12aS,12bS)-10-hydroxy-3a,10,12a-trimethyloctadecahydronaphtho[2,1-e]azulen-4-yl)-2-oxoethyl)-1H-pyrazole-4-carbonitrile]",IC50,"Table V-2, read-out: TBPS IC50",100 to 1000 nM
